Columns and labels:
Type in all cases: in vivo
Conditions in all cases: 1000 g/ha, evaluated after 13 days
[1] = test system: Triticum aestivium (TRZAW); assay: Post-emergence herbicidal activity, Triticum aestivium; design: key: 5=total damage to plant; 0=no damage to plant
Procedure, shortened: (§1)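 Glasshouse post-emergence spray test: seedlings treated at 8 days after sowing with compound formulated in 50:50 acetone/water plus 0.5% Tween 20, then grown on at 24/16 °C, 14 h light, 65% humidity. Injury rated 13 days later, 0 = no damage, 5 = total damage.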

[2] = test system: Alopecurus myosuroides (ALOMY); assay: Pre-emergence herbicidal activity, Alopecurus myosuroides; design: key: 5=total damage to plant; 0=no damage to plant
Procedure, shortened: (§2)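 Seeds sown in standard soil in pots, grown one day in a glasshouse (24/16 °C day/night, 14 h light, 65% humidity), then sprayed pre-emergence with compound in acetone/water (50:50) containing 0.5% Tween 20. Plants were scored after 13 days on a 0–5 scale (5 = total damage, 0 = none).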

[3] = test system: Echinochloa crus-galli (ECHCG); assay: Pre-emergence herbicidal activity, Echinochloa crus-galli; design: key: 5=total damage to plant; 0=no damage to plant
Procedure, shortened: as §2

[4] = test system: Alopecurus myosuroides (ALOMY); assay: Post-emergence herbicidal activity, Alopecurus myosuroides; design: key: 5=total damage to plant; 0=no damage to plant
Procedure, shortened: as §1

Avena fatua (AVEFA) [5] = assay: Post-emergence herbicidal activity, Avena fatua
Procedure, shortened: as §1

Setaria faberi (SETFA) [6] = assay: Post-emergence herbicidal activity, Setaria faberi; design: key: 5=total damage to plant; 0=no damage to plant
Procedure, shortened: as §1

Setaria faberi (SETFA) [7] = assay: Pre-emergence herbicidal activity, Setaria faberi; design: key: 5=total damage to plant; 0=no damage to plant
Procedure, shortened: as §2

Avena fatua (AVEFA) [8] = assay: Pre-emergence herbicidal activity, Avena fatua; design: key: 5=total damage to plant; 0=no damage to plant
Procedure, shortened: as §2

[9] = test system: Echinochloa crus-galli (ECHCG); assay: Post-emergence herbicidal activity, Echinochloa crus-galli; design: key: 5=total damage to plant; 0=no damage to plant
Procedure, shortened: as §1

Lolium perenne (LOLPE) [10] = assay: Post-emergence herbicidal activity, Lolium perenne
Procedure, shortened: as §1

Lolium perenne (LOLPE) [11] = assay: Pre-emergence herbicidal activity, Lolium perenne; design: key: 5=total damage to plant; 0=no damage to plant
Procedure, shortened: as §2

[12] = test system: Triticum aestivium (TRZAW); assay: Pre-emergence herbicidal activity, Triticum aestivium; design: key: 5=total damage to plant; 0=no damage to plant
Procedure, shortened: as §2

| Compound | Control of TRAZW after post-emergence application (score 0-5) [1] | Control of ALOMY after pre-emergence application (score 0-5) [2] | Control of ECHCG after pre-emergence application (score 0-5) [3] | Control of ALOMY after post-emergence application (score 0-5) [4] | Control of AVEFA after post-emergence application (score 0-5) (Avena fatua (AVEFA) [5]) | Control of SETFA after post-emergence application (score 0-5) (Setaria faberi (SETFA) [6]) | Control of SETFA after pre-emergence application (score 0-5) (Setaria faberi (SETFA) [7]) | Control of AVEFA after pre-emergence application (score 0-5) (Avena fatua (AVEFA) [8]) | Control of ECHCG after post-emergence application (score 0-5) [9] | Control of LOLPE after post-emergence application (score 0-5) (Lolium perenne (LOLPE) [10]) | Control of LOLPE after pre-emergence application (score 0-5) (Lolium perenne (LOLPE) [11]) | Control of TRAZW after pre-emergence application (score 0-5) [12] |
| --- | --- | --- | --- | --- | --- | --- | --- | --- | --- | --- | --- | --- |
| CC(C)(C)OC(=O)N(C(=O)OC(C)(C)C)c1ccc(-c2cncc(F)c2)nc1C#N [Compound B114] | 1 | 0 | 5 | 0 | 4 | 5 | 5 | 1 | 5 | 3 | 1 | 0 |
| CC(C)(C)OC(=O)Nc1ccc(-c2cncc(F)c2)nc1C#N [Compound B34, tert-butyl N-[2-cyano-6-(5-fluoro-3-pyridyl)-3-pyridyl]carbamate] | 1 | 0 | 4 | 0 | 2 | 4 | 5 | 0 | 5 | 1 | 1 | 0 |
| COc1nc(-c2cncc(F)c2)ccc1NC(=O)OC(C)(C)C [Compound B78] | 0 | 0 | 2 | 0 | 2 | 5 | 4 | 0 | 2 | 1 | 1 | 0 |
| CN1CCN(c2ccc(-c3cncc(F)c3)nc2C(F)(F)F)C1=O [Compound B46] | 0 | 0 | 2 | 0 | 3 | 4 | 4 | 1 | 4 | 2 | 0 | 0 |
| CC(C)OC(=O)Nc1ccc(-c2cncc(F)c2)nc1C#N [Compound B115] | 1 | 0 | 4 | 1 | 4 | 5 | 5 | 2 | 5 | 3 | 0 | 0 |
| CON(C)C(=O)Nc1ccc(-c2cncc(F)c2)nc1C(F)(F)F [Compound B111] | 0 | 0 | 3 | 0 | 2 | 4 | 3 | 2 | 3 | 1 | 0 | 0 |
